This series relates to mouse salivary gland organoids.

The values below come from US20260234555A1 (priority 2022, published 2026).

Each structure is given as a SMILES string.

Regarding `CC(=O)OCC[N+](C)(C)C.[Cl-]` [acetylcholine, Acetylcholine chloride], the “effect on the morphology and growth of the organoids” value is on record as “no effect”.

For the molecule `CN(C)C(=O)Oc1cccc([N+](C)(C)C)c1` [neostigmine, Neostigmine bromide], the “changes in the morphology and growth of the organoids” value is “no significant changes”.
